According to patent US20140228440A1, “1-AMINO-ALKYLCYCLOHEXANE DERIVATIVES FOR THE TREATMENT OF INFLAMMATORY SKIN DISEASES” (MERZ PHARMA GmbH & CO. KGaA, priority 2008, published 2014):

Tested on: Propionibacterium granulosum ATCC 11829
Experiment: MIC and MBC by the agar dilution method
Format: cell-based
[1] = final concentration 0.08 %, pH 5.5
[2] = final concentration 0.08 %, pH 6.0
[3] = final concentration 0.08 %, pH 7.4
[4] = final concentration 0.16 %, pH 5.5
[5] = final concentration 0.16 %, pH 6.0
[6] = final concentration 0.16 %, pH 7.4
[7] = final concentration 0.31 %, pH 5.5
[8] = final concentration 0.31 %, pH 6.0
[9] = final concentration 0.31 %, pH 7.4
[10] = final concentration 0.63 %, pH 5.5
[11] = final concentration 0.63 %, pH 6.0
[12] = final concentration 0.63 %, pH 7.4
[13] = final concentration 1.56 %, pH 5.5
[14] = final concentration 1.56 %, pH 6.0
[15] = final concentration 1.56 %, pH 7.4
[16] = final concentration 2.50 %, pH 5.5
[17] = final concentration 2.50 %, pH 6.0
[18] = final concentration 2.50 %, pH 7.4
[19] = final concentration 3.13 %, pH 5.5
[20] = final concentration 3.13 %, pH 6.0
[21] = final concentration 3.13 %, pH 7.4
[22] = final concentration 6.25 %, pH 5.5
[23] = final concentration 6.25 %, pH 6.0
[24] = final concentration 6.25 %, pH 7.4

CC1(C)CC(C)(C)CC(C)(N)C1.CS(=O)(=O)O [Neramexane mesylate]
growth of bacteria on duplicate plates (MIC determination) (final concentration 0.01 %, pH 5.5): + + | growth of bacteria on duplicate plates (MIC determination) (final concentration 0.01 %, pH 6.0): + + | growth of bacteria on duplicate plates (MIC determination) (final concentration 0.01 %, pH 7.4): + + | growth of bacteria on duplicate plates (MIC determination) (final concentration 0.04 %, pH 5.5): + + | growth of bacteria on duplicate plates (MIC determination) (final concentration 0.04 %, pH 6.0): + − | growth of bacteria on duplicate plates (MIC determination) (final concentration 0.04 %, pH 7.4): + − | growth of bacteria (MBC determination) [1]: + + | growth of bacteria on duplicate plates (MIC determination) [1]: − − | growth of bacteria (MBC determination) [2]: + + | growth of bacteria on duplicate plates (MIC determination) [2]: − − | growth of bacteria (MBC determination) [3]: + + | growth of bacteria on duplicate plates (MIC determination) [3]: − − | growth of bacteria (MBC determination) [4]: + + | growth of bacteria on duplicate plates (MIC determination) [4]: − − | growth of bacteria (MBC determination) [5]: + + | growth of bacteria on duplicate plates (MIC determination) [5]: − − | growth of bacteria (MBC determination) [6]: + + | growth of bacteria on duplicate plates (MIC determination) [6]: − − | growth of bacteria (MBC determination) [7]: + + | growth of bacteria on duplicate plates (MIC determination) [7]: − − | growth of bacteria (MBC determination) [8]: − − | growth of bacteria on duplicate plates (MIC determination) [8]: − − | growth of bacteria (MBC determination) [9]: + + | growth of bacteria on duplicate plates (MIC determination) [9]: − − | growth of bacteria (MBC determination) [10]: − − | growth of bacteria on duplicate plates (MIC determination) [10]: − − | growth of bacteria (MBC determination) [11]: − − | growth of bacteria on duplicate plates (MIC determination) [11]: − − | growth of bacteria (MBC determination) [12]: + + | growth of bacteria on duplicate plates (MIC determination) [12]: − − | growth of bacteria (MBC determination) [13]: − − | growth of bacteria on duplicate plates (MIC determination) [13]: − − | growth of bacteria (MBC determination) [14]: − − | growth of bacteria on duplicate plates (MIC determination) [14]: − − | growth of bacteria (MBC determination) [15]: − − | growth of bacteria on duplicate plates (MIC determination) [15]: − − | growth of bacteria (MBC determination) [16]: − − | growth of bacteria on duplicate plates (MIC determination) [16]: − − | growth of bacteria (MBC determination) [17]: − − | growth of bacteria on duplicate plates (MIC determination) [17]: − − | growth of bacteria (MBC determination) [18]: − − | growth of bacteria on duplicate plates (MIC determination) [18]: − − | growth of bacteria (MBC determination) [19]: − − | growth of bacteria on duplicate plates (MIC determination) [19]: − − | growth of bacteria (MBC determination) [20]: − − | growth of bacteria on duplicate plates (MIC determination) [20]: − − | growth of bacteria (MBC determination) [21]: − − | growth of bacteria on duplicate plates (MIC determination) [21]: − − | growth of bacteria (MBC determination) [22]: − − | growth of bacteria on duplicate plates (MIC determination) [22]: − − | growth of bacteria (MBC determination) [23]: − − | growth of bacteria on duplicate plates (MIC determination) [23]: − − | growth of bacteria (MBC determination) [24]: − − | growth of bacteria on duplicate plates (MIC determination) [24]: − − | MBC (pH 5.5): 0.63% | MIC (pH 5.5): 0.08% | MBC (pH 6.0): 0.31% | MIC (pH 6.0): 0.08% | MBC (pH 7.4): 1.56% | MIC (pH 7.4): 0.08%
